{"source": "patent US20080124416A1", "about": "(RENAISSANCE HERBS, INC., priority 2006, published 2008)", "origin": "cited, not measured here", "key": {"[1]": {"details": "in vitro"}, "[2]": {"system": "human lens epithelial (HLE) cells", "details": "in vitro"}, "hepatic fibrosis": {"system": "hepatic fibrosis", "details": "12.5 or 25 mg/kg p.o."}, "[3]": {"details": "in vivo"}, "[4]": {"system": "cultured bone cells from the femoral tissues", "details": "micromole amounts"}, "[5]": {"system": "osteoblastic MC3T3-E1 cells"}, "[6]": {"system": "diabetes (streptozotocin-induced)", "details": "oral, 50 or 100 μg/kg/day for 14 days"}, "[7]": {"system": "rat cortical and trabecular bone tissues"}}, "data": [{"compound": "CC1=C(/C=C/C(C)=C/C=C/C(C)=C/C=C/C=C(C)/C=C/C=C(C)/C=C/C2=C(C)C[C@@H](O)CC2(C)C)C(C)(C)C[C@H](O)C1", "note": "[zeaxanthin]", "values": [{"measurement": "antioxidative activity against A2-PE, a pro-oxidant protein in retinal pigment cells", "setting": "[1]", "value": "antioxidative activity"}, {"measurement": "UVB light-induced lipid peroxidation", "setting": "[2]", "value": "inhibits"}, {"measurement": "TBARS, collagen deposition, 4-hydroxyproline levels, serum ALP and AST", "setting": "hepatic fibrosis", "value": "significantly decreased"}, {"measurement": "activities of glutathione-S-transferase and glutathione", "setting": "hepatic fibrosis", "value": "significantly increased"}]}, {"compound": "CCCCCCCCCCCCCCCC(=O)O[C@@H]1CC(C)=C(/C=C/C(C)=C/C=C/C(C)=C/C=C/C=C(C)/C=C/C=C(C)/C=C/C2=C(C)CCCC2(C)C)C(C)(C)C1", "note": "[β-Cryptoxanthinpalmitate]", "values": [{"measurement": "human bioavailability of esterified vs free form", "setting": "[3]", "value": "comparable"}]}, {"compound": "CC1=C(/C=C/C(C)=C/C=C/C(C)=C/C=C/C=C(C)/C=C/C=C(C)/C=C/C2=C(C)C[C@@H](O)CC2(C)C)C(C)(C)CCC1", "note": "[β-cryptoxanthin]", "values": [{"measurement": "alkaline phosphatase activity and calcium content", "setting": "[4]", "value": "significantly increases"}, {"measurement": "transcriptional activity, proliferation, cell differentiation and mineralization", "setting": "[5]", "value": "stimulates"}, {"measurement": "osteoblast-like cell formation induced by bone-resorbing factors", "setting": "mouse marrow cultures", "value": "potently inhibits"}, {"measurement": "symptoms of diabetes (serum glucose, triglycerides, calcium, body weight, bone loss)", "setting": "[6]", "value": "significantly attenuate"}, {"measurement": "decrease in calcium content induced by prostaglandin E2 and parathyroid hormone", "setting": "[7]", "value": "completely inhibits"}]}]}
